How the values were obtained:
Type in all cases: cell-based
MCF7 cells = assay: Real time RT-PCR of miRNAs in hormone-treated MCF7 cells; details: MCF7, estradiol and ICI
Method: Hormone Treatments. MCF7 cells were grown in phenol red-free media containing charcoal stripped serum for 24 hours prior to hormone treatments. The cells were treated with ethanol, 10 nM estradiol or a combination of 10 nM estradiol and 1 mM ICI 182,780 (ICI, Tocris Bioscience) for 6 h, 24 h or 48 h, as indicated, before harvesting RNA using Trizol (Invitrogen) as per the manufacturer's instructions.
Real Time RT-PCR. Poly A tailing and reverse transcription was performed using the NCode miRNA qRT-PCR kit (Invitrogen) as per manufacturer's instructions. SYBR green real time RT-PCR was performed using the Universal Forward Primer (Invitrogen) and miRNA specific primers. The specific primers used were: miR-193b 5′-[…]-3′ (SEQ ID NO: 10); miR-19b 5′-[…]-3′ (SEQ ID NO: 11); miR-20a 5′-[…]-3′ (SEQ ID NO: 12); miR-106a 5′-[…]-3′ (SEQ ID NO: 13); and miR-92b* 5′-[…]-3′ (SEQ ID NO: 14). Reported values are the means and standard errors of 3 biological replicates.
For miR-22, miR-221 and miR-7, taqman real time PCR was performed. Prior to generating cDNA, mRNA was treated with DNase1 (Invitrogen) for 15 min at room temperature. RNA was reverse transcribed into cDNA in a reaction containing reaction buffer, 10 mM DTT, 1 mM dNTPs, RNAse inhibitor (Promega), random hexamers (250 ng) and 200 U of MMUV-RT (ABI). The reaction proceeded at 25° C. for 10 min, then at 37° C. for 1 h. For normalization, real time RT-PCR was performed on the cDNA using ribosomal RNA primers and probe (ABI). TaqMan mRNA Reverse Transcription kit was used to generate cDNA for real time RT-PCR reaction in conjunction with a miR-22, miR-221 or miR-7 specific primers and probe (ABI). Reported values are the means and standard errors of three biological replicates.
The relative mRNA or miRNA levels were calculated using the comparative Ct method (ΔΔCt). Briefly, the Ct (cycle threshold) values for the rRNA were subtracted from Ct values of the target gene to achieve the ΔCt value. The 2^−ΔCt was calculated for each sample and then each of the values was then divided by a control sample to achieve the relative miRNA levels (ΔΔCt).

FASN = assay: Immunoblot of FASN in triple-negative (BT549) cells after miR-193b mimic transfection; details: TN cells (BT549), 50 nM mimic, 72 h
Method: (§1) Transfections. BT549 or MDA-MB-231 cells were plated one day prior to transfection. Lipofectamine 2000 (Invitrogen) was incubated with the miRNA mimics for miR-22, miR-221, miR-193b or miR-7 (Ambion) or scrambled negative control (Ambion) at a concentration of 50 nM incubated in serum free media for 20 minutes prior to addition to the cells. Cells were incubated with the transfection mix at 37° C. for 4 h before replacement of FBS to 5%. Protein was harvested 72 h post-transfection using RIPA lysis buffer (1% NP40, 0.5% NaDeoxycholate, 0.1% SDS, 50 mM Tris, 150 mM NaCl, 5 mM EDTA) containing protease inhibitors.
(§2) Immunoblotting. Cell lysates (50 μg) in SDS sample buffer were denatured and separated on 8% SDS PAGE gels and transferred to PVDF membranes. The membranes were blocked in 5% milk in TBS-T, and then probed overnight at 4° C. […] After incubation with appropriate HRP-conjugated secondary antibody, results were detected using Western Lightning Chemiluminescence Reagent Plus (Perkin Elmer).

[1] = tested on: BT549 (triple negative) cells; assay: Apoptosis (PARP cleavage immunoblot) in triple-negative (BT549) cells; details: TN cells (BT549), 50 nM mimic, 72 h
Method: as §1, §2

[2] = tested on: MCF10A (normal immortalized) cells; assay: Apoptosis in MCF10A cells after miR-193b transfection
ESR1 3′UTR = assay: Luciferase reporter assay, ESR1 3′UTR region ESR1-1, in MCF7 cells; details: ESR1-1 reporter, 50 nM each mimic, versus scrambled negative control
Description: Luciferase Assays. A 360 bp fragment of the 3′ untranslated region of ESR1 containing the putative binding sites for miR-203, miR-221 and miR-22 was amplified by PCR from HeLa genomic DNA (NEB) using the following primers: ESR1-1 F 5′-[…]-3′ (SEQ ID NO: 6) and ESR1-1 R 5′-[…]-3′ (SEQ ID NO: 7). A 680 bp fragment containing the putative binding sites for miR-130/301, miR-148/152, miR-19 and miR-26 was amplified using the following primers: ESR1-2 F 5′-[…]-3′ (SEQ ID NO: 8) and ESR1-2 R 5′-[…]-3′ (SEQ ID NO: 9). MCF7 cells (20,000 cells/well) in a 96-well plate were transfected with the 100 nM of the negative control, 50 nM each of the miR-22, miR-221 or both as described above. After 24 h, the firefly reporter plasmid (0.196 μg) and a renilla luciferase normalization plasmid (0.004 μg/pRL-SV40, Promega) were transfected in using Lipofectamine 2000. Cells were collected 48 hours later for assay using the Dual Luciferase Reporter assay system (Promega).

C[C@]12CC[C@@H]3c4ccc(O)cc4C[C@@H](CCCCCCCCC[S+]([O-])CCCC(F)(F)C(F)(F)F)[C@H]3[C@@H]1CC[C@@H]2O (stereo partly drawn) [ICI, ICI 182,780]
estradiol effect on miR-92b* (MCF7 cells; 24 h): reversed
estradiol effect on miR-19b (MCF7 cells; 48 h): abrogated
estradiol effect on miR-20a (MCF7 cells; 48 h): abrogated
estradiol effect on miR-106a (MCF7 cells; 48 h): abrogated

miR-193b mimic: miRNA mimic for miR-193b (Ambion); miR-193b is SEQ ID NO:1 aacuggcccucaaagucccgcu (AACUGGCCCUCAAAGUCCCGCU; mimic duplex, complementary strand not listed, further chemistry not given here)
FASN protein (FASN): almost complete repression
PARP cleavage [1]: complete PARP cleavage
apoptosis, as seen by the appearance of cleaved PARP [1]: increase in apoptosis
apoptosis [2]: no apoptosis

miR-221 mimic: miRNA mimic for miR-221 (Ambion); hsa-miR-221 sequence agcuacauugucugcuggguuuc (AGCUACAUUGUCUGCUGGGUUUC; chemistry not given here)
decrease in luciferase activity (ESR1 3′UTR): 13.7%

— patent US8507195B2, “MiRNAs dysregulated in triple-negative breast cancer” (The Regents of the University of Colorado, priority 2009, dated 2013)
